Source: patent US9315492B2, “Heterocyclic group contained amino-methanol derivative, and salt, synthetic method and use thereof” (BEIJING FORELAND BIOPHARMA CO., LTD., priority 2012, dated 2016)

How the values were obtained:
S1P1 [1] = biological target: T1, S1P1 (Homo sapiens (Human), UniProt P21453); assay: S1P1 GTPγS binding assay; format: biochemical; conditions: [35S]-GTPγS, membranes with high-expressed S1P1 (CHO-S1P1)
Description: 1. S1P1GTPγS Binding Assay
2) T-75 cell culture plate; 150 mm cell culture dish
3) DMEM cell culture fluid; 10% (v/v) fetal bovine serum; 100 U/ml penicillin-100 μg/ml streptomycin; 2 mM […], 1 mg/ml G-418
4) Cell Lysis Buffer: HEPES 20 mM (pH 7.4), EDTA 10 mM
5) Stock solution: HEPES 20 mM, EDTA 0.1 mM
6) Binding Buffer; HEPES 20 mM (pH 7.4), NaCl 100 mM, MgCl2 5 mM, GDP 1 μM, BSA 0.1% (w/v), DMSO 2.5% (v/v),
7) Washing solution: NaH2PO4 10 mM (pH 7.4)
The test compounds were dissolved in DMSO and prepared as a concentration of 20 mM.
The concentrations of the compounds were detected ranging from 0.3 nM to 20 μM.
Control group: […] SIP and SEW2871 were used as positive control and were purchased from Tocris company, and the binding buffet was as negative control.
Test method: wetting membranes by saponin solution, and preparing [^35S]-GTPγS in binding solution (4×). The test compound was prepared as 4× of the final concentration which was then performed serial 3× dilution in 100% DMSO. Membranes with high-expressed S1P1 were collected in 5 ml binding buffer, and 50 μL was added to 96-well (containing 5 μg membrane protein with high-expressed S1P1). 25 μL, test compound was added in each well. The compound was incubated with the membranes for 30 min at room temperature, then 25 μL [^35S]-GTPγS was added, and the experiment was initiated. The 96-well detection plate was incubated for 1 hour at room temperature, filtered by filtermat B, and washed with washing solution for three times. After the plate was dried for 1 h at 50° C., 8 ml scintillator solution was added and counted using scintillation counter.
Result Analysis and Determination of 50% Inhibitory Concentration (IC50):
The IC50 value was calculated by using (Prism 4) software, and 50% inhibitory concentrations were obtained.

[2] = tested on: peripheral blood lymphocyte; assay: Effects on peripheral blood lymphocyte in mice; format: in vivo, Balb/c mice; conditions: intragastric
Description: 3. Effects of the Compounds in Example-21 and Example-22 on Peripheral Blood Lymphocyte in Mice
3.1 Experimental Materials:
1) 15% EDTA, PBS, EP tubes, 15 ml centrifuge tube, capillary tube, pipette tip were all purchased from Shanghai biological technology co., Ltd. Hemocyte analysis reagents were purchased from Shanghai Sysmex Company.
2) 35 Balb/c mice (female, 20-22 g), supplied by laboratory animal center of Jilin University.
3) Automated Hematology Analyzer (pocH-100 iV Diff) was purchased from Sysmex Company, Kobe, Japan.
1) The stock solutions of the compounds obtained in Example-21 and Example-22 were prepared with normal saline, and the concentrations are 2 mg/ml and 20 mg/ml, respectively.
2) The mice were divided into […], i.e., control group, low-dose experimental group, and high-dose experimental group. They were weighed and labeled well.
3) Before administration, supraorbital venous blood was collected with 20 μl/mouse which was added to anticoagulant tube containing EDTA, and nosed thoroughly. The numbers of lymphocytes were analyzed by pocH-100.
4) The control group was given normal saline: low-dose experimental groups were given the compounds obtained in Example-21 and Example-22 (5 mg/kg/d), high-dose experimental groups were given the compounds obtained in Example-21 and Example-22 (30 mg/kg/d), with liquid amount of 500 μl/mouse, by intragastric administration. Administration was performed for continuous four days, once a day. After 3.5 hours of the first and fourth administration, blood was collected respectively, and changes in the numbers of lymphocytes were analyzed by pocH-100.

[3] = tested on: experimental rheumatoid arthritis (bovine collagen type II immunized mice); assay: Experimental rheumatoid arthritis; format: in vivo; conditions: DBA/1JLacJ mice, 5 and 30 mg/kg/d intragastric, 30 days
[4] = tested on: autoimmune multiple sclerosis (PLP139-151 immunized mice); assay: Experimental autoimmune multiple sclerosis; format: in vivo; conditions: SJL/J mice, 5 and 30 mg/kg/d intragastric, 30 days
S1P1 [5] = biological target: T1, S1P1; assay: S1P1 β-arrestin assay (PathHunter CHO-K1 EDG1); format: cell-based; conditions: CHO-EDG-1 cells
Description: 2.1 Experimental Materials: Path hunter express CHO-K1 EDG1 β-arrestin GPCR Assay was purchased from DiscoveRx, containing CHO-EDG-1 cells, buffers, substrate-1, substrate-2, cell culture fluid, 96-well cell culture plate.
1) The test compounds were dissolved in DMSO and prepared as a concentration of 20 mM.
2) The concentrations of the test compounds were detected ranging from […] to 20 μM.
4) Assay procedures: OCC culture solution was preheated in water tank at 37° C. Cells were taken out from liquor nitrogen tank, left on the dry-ice, and dissolved in water tank at 37° C. 0.5 ml OCC culture solution was added and blended slowly. The cells were diluted in 11.5 mL OCC culture solution, and 100 μL cell suspension (containing 8333 cells) was added to each well of the 96-well plate. The 96-well plate was incubated for 8 hours under 5% CO2 at 37° C., and 10 μL test compound dissolved in DMSO was added in; 10 μL DMSO was used as negative control. After the plate was incubated for 90 min at 37° C., 55 μL detection solution was added to each well. Then the results were read out by EnVision after the cell plate was incubated for 90 min at room temperature.
The EC50 Value was Calculated by Using Prism 4 Software

T1 sequence (P21453 whole entry): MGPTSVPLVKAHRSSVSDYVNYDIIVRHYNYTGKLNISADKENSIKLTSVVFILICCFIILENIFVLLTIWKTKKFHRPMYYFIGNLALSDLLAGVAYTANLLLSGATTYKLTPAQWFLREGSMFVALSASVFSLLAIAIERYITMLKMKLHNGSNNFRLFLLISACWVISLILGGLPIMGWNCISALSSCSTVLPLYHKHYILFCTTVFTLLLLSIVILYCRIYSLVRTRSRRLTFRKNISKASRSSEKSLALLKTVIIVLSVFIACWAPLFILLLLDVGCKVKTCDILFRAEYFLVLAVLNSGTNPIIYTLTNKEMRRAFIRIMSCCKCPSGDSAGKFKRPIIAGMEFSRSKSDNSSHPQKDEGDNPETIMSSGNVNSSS

| Compound | IC50 (S1P1 [1]) | EC50 (S1P1 [5]) | also measured |
| --- | --- | --- | --- |
| CC(C)Oc1ccc(-c2nnc(-c3ccc4c(c3)CC(N)(CO)CC4)o2)cn1 (stereo not drawn) [Example 19, 7-[5-(6-isopropoxy-3-pyridyl)-2-[1,3,4]-oxdiazolyl]-2-amino-1,2,3,4-tetrahydronaphthalen-2-yl-methanol] | 61.2 nM |  |  |
| CC(=O)NC1(CO)CCc2ccc(-c3nnc(-c4ccc(OC(C)C)c(C)c4)o3)cc2C1 (stereo not drawn) [Example 25, N-{2-hydroxymethyl-7-[5-(3-methyl-4-isopropoxyphenyl)-2-1,3,4-oxdiazolyl]-1,2,3,4-tetrahydro-naphthalen-2-yl}acetamide] | 45.5 nM |  |  |
| CCOc1ccc(-c2nnc(-c3ccc4c(c3)CC(N)(CO)CC4)o2)cc1OCC (stereo not drawn) [Example 20, 7-[5-(3,4-diethoxyphenyl)-2-[1,3,4]-oxdiazolyl]-2-amino-1,2,3,4-tetrahydro-naphthalen-2-yl-methanol] | 179 nM |  |  |
| 2-(7-benzylamino-5,6,7,8-tetrahydro-7-naphthalenemethanol)-5-(3-methyl-4-isopropoxy)-1,3,4-oxdiazole [Example 21] | 179 nM |  | toxicity ([2]; dose up to 30 mg/kg/d, four days): no toxicity effects; behavior and weight of mice, pre- versus post-administration ([2]; four days): no differences; numbers of peripheral blood lymphocyte reduced compared to pre-administration ([2]; once a day for continuous four days): 92%; effect on induction and development of experimental rheumatoid arthritis [3]: obviously inhibiting; effect on induction and development of experimental rheumatoid arthritis ([3]; listed as Example-21): remarkable inhibitory effects; effect on induction and development of autoimmune multiple sclerosis [4]: obviously inhibiting; effect on induction and development of autoimmune multiple sclerosis ([4]; listed as Example-21): remarkable inhibitory effects |
| CC(C)Oc1ccc(-c2nnc(-c3ccc4c(c3)CC(N)(CO)CC4)o2)cc1C(F)(F)F (stereo not drawn) [Example 11, 7-[5-(3-trifluoromethyl-4-isopropoxyphenyl)-2-[1,3,4]oxdiazolyl]-2-amino-1,2,3,4-tetrahydronaphthalen-2-yl-methanol] | 0.4 nM | 3.1 nM |  |
| COCCOc1ccc(-c2nnc(-c3ccc4c(c3)CC(N)(CO)CC4)o2)cc1C (stereo not drawn) [Example 18, 7-{5-[4-(2-methoxyethoxy)-3-methylphenyl]-2-1,3,4-oxdiazolyl}-2-amino-1,2,3,4-tetrahydro-naphthalen-2-yl-methanol] | 41.1 nM |  |  |
| CC(C)Oc1ccc(-c2nnc(-c3ccc4c(c3)CC(N)(CO)CC4)o2)cc1 (stereo not drawn) [Example 16, 7-[5-(4-isopropoxyphenyl)-2-1,3,4-oxdiazolyl]-2-amino-1,2,3,4-tetrahydro-naphthalen-2-yl-methanol] | 46 nM |  |  |
| COc1ccc(-c2nnc(-c3ccc4c(c3)CC(N)(CO)CC4)o2)cc1C (stereo not drawn) [Example 15, 7-[5-(4-methoxy-3-methylphenyl)-2-1,3,4-oxdiazolyl]-2-amino-1,2,3,4-tetrahydro-naphthalen-2-yl-methanol] | 16 nM | 27 nM |  |
| CCNC1(CO)CCc2ccc(-c3nnc(-c4ccc(OC(C)C)c(C)c4)o3)cc2C1 (stereo not drawn) [Example 23, 7-[5-(3-methyl-4-isopropoxyphenyl)-2-1,3,4-oxdiazolyl]-2-ethylamino-1,2,3,4-tetrahydro-naphthalen-2-yl-methanol] | 37.6 nM |  |  |
| COCCOc1ccc(-c2nnc(-c3ccc4c(c3)CC(N)(CO)CC4)o2)cc1 (stereo not drawn) [Example 10, 7-{5-[4-(2-methoxyethoxy)phenyl]-2-[1,3,4]oxdiazolyl]-2-amino-1,2,3,4-tetrahydro-naphthalen-2-yl-methanol] | 31.7 nM | 77 nM |  |
| Cc1cc(-c2nc(-c3ccc4c(c3)CC(N)(CO)CC4)no2)ccc1OC(C)C (stereo not drawn) [Example 29, 7-[5-(3-methyl-4-isopropoxyphenyl)-3-1,2,4-oxdiazolyl]-2-amino-1,2,3,4-tetrahydro-naphthalen-2-yl-methanol] | 0.4 nM | 9.9 nM |  |
| Cc1cc(-c2nnc(-c3ccc4c(c3)CC(CO)(NS(C)(=O)=O)CC4)o2)ccc1OC(C)C (stereo not drawn) [Example 26, N-{2-hydroxymethyl-7-[5-(3-methyl-4-isopropoxyphenyl)-2-1,3,4-oxdiazolyl]-1,2,3,4-tetrahydro-naphthalen-2-yl}methanesulfonamide] | 86 nM |  |  |
| Cc1cc(-c2noc(-c3ccc4c(c3)CC(N)(CO)CC4)n2)ccc1OC(C)C (stereo not drawn) [Example 27, 7-[3-(3-methyl-4-isopropoxyphenyl)-5-1,2,4-oxdiazolyl]-2-amino-1,2,3,4-tetrahydro-naphthalen-2-yl-methanol] | 1.2 nM | 20 nM |  |
| Cc1cc(-c2noc(-c3ccc4c(c3)CCC(N)(CO)C4)n2)ccc1OC(C)C (stereo not drawn) [Example 28, 6-[3-(3-methyl-4-isopropoxyphenyl)-5-1,2,4-oxdiazolyl]-2-amino-1,2,3,4-tetrahydro-naphthalen-2-yl-methanol] | 473 nM |  |  |
| Cc1cc(-c2cn(-c3ccc4c(c3)CC(N)(CO)CC4)nn2)ccc1OC(C)C (stereo not drawn) [Example 31, 7-[4-(3-methyl-4-isopropoxyphenyl)-1-1,2,3-triazolyl]-2-amino-1,2,3,4-tetrahydro-naphthalen-2-yl-methanol] | 5 nM | 14.3 nM |  |
| Cc1cc(-c2nnc(-c3ccc4c(c3)CC(CO)(N(C)C)CC4)o2)ccc1OC(C)C (stereo not drawn) [Example 24, 7-[5-(3-methyl-4-isopropoxyphenyl)-2-1,3,4-oxdiazolyl]-2-dimethylamino-1,2,3,4-tetrahydro-naphthalen-2-yl-methanol] | 46 nM | 354 nM |  |
| Cc1cc(-c2cn(-c3ccc4c(c3)CCC(N)(CO)C4)nn2)ccc1OC(C)C (stereo not drawn) [Example 32, 6-[4-(3-methyl-4-isopropoxyphenyl)-1-1,2,3-triazolyl]-2-amino-1,2,3,4-tetrahydro-naphthalen-2-yl-methanol] | 125 nM |  |  |
| COCCOc1ccc(-c2nnc(-c3ccc4c(c3)CC(N)(CO)CC4)o2)cc1C(F)(F)F (stereo not drawn) [Example 17, 7-{5-[4-(2-methoxyethoxy)-3-trifluoromethylphenyl]-2-1,3,4-oxdiazolyl}-2-amino-1,2,3,4-tetrahydro-naphthalen-2-yl-methanol] | 10.2 nM |  |  |
| Cc1cc(-c2nc(-c3ccc4c(c3)CCC(N)(CO)C4)no2)ccc1OC(C)C (stereo not drawn) [Example 30, 6-[5-(3-methyl-4-isopropoxyphenyl)-3-1,2,4-oxdiazolyl]-2-amino-1,2,3,4-tetrahydro-naphthalen-2-yl-methanol] | 749 nM |  |  |
